# Measurements as given in patent US8338177B2, “Cell culture medium” (Lonza Biologics PLC, priority 2002, dated 2012).
# What was measured:
# [1] = tested on: cultured human endothelial cells; settings: acetate at 5 mM; cited from earlier work
# [2] = tested on: GS-NS0 cell line 6A1(100)3; experiment: GS-NS0 6A1 fed-batch culture (shake flask / airlift bioreactor): growth and antibody productivity by protein A-HPLC; settings: for single cell productivity (qp): fed-batch shake flask
# Experimental: (§1) Where not specified, antibody productivity or titer was determined by protein A-HPLC.
# The GS-NS0 cell line 6A1(100)3, 6A1 for short, secreting recombinant mouse/human chimeric IgG cB72.3 (Bebbington, 1992, supra) was used in all experimental settings under this section. Cell culture was either carried out in shake flask culture or in a fed-batch mode in a 101 standard airlift bioreactor, essentially as described (Bebbington, 1992). Feeds essentially comprised amino acids and carbohydrate as described above for high-density media and fermentation, respectively. Feed volume was at 4% of post-inocculation volume. Feed was initiated at a rate of 0.2 ml/Lh when viable cell density exceeded 14×10^5 cells/ml. Temperature was controlled at 36.5 degree centigrade; for airlift, air saturation was at 15%. pH was controlled at pH 7.00. Culture was inoculated at 2×10^5 viable cells/ml. Medium is serum- and essentially protein-free growth medium ProCH04-CDM (BioWhittaker) supplemented with […] methionine sulfoximine (MSX). Cells were pre-adapted to medium. […] Positively, it did prolong stationary phase upon fermentation.
# Cumulative cell time (10^6 cell/h ml) was calculated by integration of the cell growth curve, essentially as described by Renard et al. (1988, Biotechnology Letters 10, 91-96).
# Either sodium acetate or potassium acetate were added to shake flask culture during mid-exponential growth phase to the final concentrations stated in the respective sections of the table of FIG. 1. Cultures were counted daily by Trypan blue method and samples were taken for product analysis by means of protein A fractionation and HPLC analysis.
# Duplicate cultures both for control and 10 mM sodium acetate supplemented culture were tested for viable cell concentration (determined by Trypan blue exclusion standard counting test). Feed was started at day 4. The acetate was not fed during growth phase as in FIG. 1 but was included in cell culture production medium right away to which the inocculum cells were added. […] The CCT remained essentially similar for all cultures.
# Exp. 2 was conducted essentially as described above for exp. 1/FIG. 2, except that now 7.5 mM sodium acetate and a proprietary high-density culture medium was used, similar to the lipid supplemented high-density media described in EP435 911 A but distinct in employing less ethanolamine and no thioglycerole and keeping Tryptophan concentration constant at 19 mM by sensor-controlled automatic feeding. […] In contrast to exp. 1, the same maximum viable cell density could be achieved in the presence of actetate as compared to the control without acetate in the absence of any adverse effect on duration of stationary phase growth. Similarly, product concentration increased steadily over control and over time (FIG. 6).
# In the permissible range, no increase in productivity could be seen at all, not even at the single cell level. The experiment was conducted essentially as described in exp. 1/FIG. 2, except that butyrate was added in the amounts shown instead of acetate. […] FIG. 9-11 show the effect of butyrate addition on CCT, antibody titer at harvest and single cell specific productivity (qp).
# CHO cell culture = settings: added to medium with 1 mM sodium butyrate; lithium salts 10 mM, LPS 1 μg/ml, sodium acetate 10 mM; cited from earlier work
# [3] = tested on: hybridoma cell line VPM 8; experiment: VPM 8 hybridoma culture: CCT, harvest antibody titer, specific productivity
# Experimental: as §1
# A dose response study for addition of sodium acetate was carried out for hybridoma cell line VPM 8 (ECACC No. 93113024, European Collection of cell cultures, supra) essentially as described in exp. 3, except that VPM 8 was grown in commercial, protein-free medium CD-Hybridoma (Invitrogen/U.K.) and in that no MSX was added, since not being a GS cell line. VPM 8 is a mouse hybridoma that was generated by conventional means of cell fusion with non-secreting myeloma cells and secretes a murine IgG1 antibody.
# The experiment has been carried out essentially as described in exp. 5, except that acetate was substituted with n-butyrate in the amounts stated in the figures.
# [4] = 7.5 mM, high-density medium, Experiment 2
# [5] = added during mid-exponential growth phase
# [6] = CD-Hybridoma protein-free medium, Experiment 5
compound,measurement,setting,value
CCC(=O)O [proprionate],expression-enhancing effect on tPA production,[1],found to have such effect
"[Cl-].[Li+] [LiCl, reference compound]",modification of the effect of acetate addition,"[2]; feed supplemented to final approx. 1-10 mM, data not shown",did not prove to modify the effect of acetate addition in any way
"lipopolysaccharide [LPS, reference compound]",protein yield enhancing effect in comparison to the butyrate control,CHO cell culture,about 4 times
"CCCC(=O)[O-].[Na+] [Butyrate, sodium n-butyrate, reference compound]",expression-enhancing effect on tPA production,[1],outstanding effect
same,dose strongly toxic to the cells (rapid decrease of viable cell density),[2]; Experiment 4,> 1 mM
same,antibody productivity,"[2]; butyrate added instead of acetate, Experiment 4",does not increase antibody productivity
same,antibody titer,[3]; Experiment 6,not effective in increasing antibody titer
same,toxicity for the cell line,[3]; Experiment 6,exceptional toxicity
CC(=O)[O-].[Na+] [sodium acetate],protein yield enhancing effect in comparison to the butyrate control,CHO cell culture,literally no benefit over the control
same,expression-enhancing effect on tPA production,[1],did not differ significantly from the control
same,cell growth parameters (cell growth rate and cumulative cell time),[2]; [4],only small decreases
same,harvest antibody concentration,[2]; [4],large increase
same,productivity in fed-batch shake flask culture,"[2]; 10 mM, added during mid-exponential growth phase, compared with potassium acetate at 10 mM or 15 mM",performed even better than potassium acetate
same,effect on growth,"[2]; Experiment 1, acetate supplementation",not to suppress growth
same,Increases in protein yield,"[2]; acetate-supplemented culture compared to control, Experiment 1",up to 98%
same,growth suppression in terms of maximum cell density,"[2]; fed-batch bioreactor, 10 mM included in production medium",No significant growth suppression
same,single cell productivity (qp),[2]; [5],increased
same,protein yield,[2]; grown with 10 mM acetate (control 470 mg/L),768 mg/L
same,optimal concentration with regard to antibody yield and process robustness,"[2]; proprietary high-density culture medium, Experiment 2",7.5 mM
same,productivity compared to non-treated control,[3]; [6],enhanced productivity
same,tolerance by the cells,[3]; [6],tolerates acetate surprisingly easily in the mM range
CC(=O)[O-].[K+] [potassium acetate],single cell productivity (qp),[2]; [5],increased
CCCCC(=O)O [valerate],expression-enhancing effect on tPA production,[1],found to have such effect
